Source: patent US20250129069A1, “TRIAZOLO WRN INHIBITORS” (Nimbus Wadjet, Inc., priority 2023, published 2025)
Read-outs that look alike come from different tables or passages of the source.

How the values were obtained:
[1] = target: human Werner helicase (WRN, amino acids 517-1235 with L1074F point mutation) (Homo sapiens (Human), UniProt Q14191, L1074F); test: WRN (BV08) ADP-Glo assay; assay type: biochemical; details: human WRN (aa 517-1235, L1074F), read-out: ADP-Glo_hWRN_IC50
Method in brief: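 ADP-Glo luminescence read after 60 min, 25 °C reaction of 0.15 nM WRN (517-1235, L1074F, Sf9-expressed, tag removed) with 0.1 nM DNA duplex and 5 μM ATP, following 15 min compound preincubation; 20 mM Bicine pH 7.5, 1% DMSO. IC50 from 3- or 4-parameter fit of % inhibition.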

[2] = test system: p21 induction in HCT 116 cells; test: p21 induction in cells (In-Cell Western, p21/GAPDH ratio); assay type: cell-based; details: 24 h compound incubation, read-out: p21_EC50
Method in brief: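 EC50 values come from nonlinear fits of percent activation, defined by the 800/700 nm p21-to-GAPDH ratio scaled between DMSO (low) and internal WRN inhibitor (high) controls. In-Cell Western read after 24 h compound exposure of HCT 116 cells at 37° C. Duplicate 11-point series, 2-fold steps, usually starting at 10 μM.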

human Werner helicase (WRN, amino acids 517-1235 with L1074F point mutation), sequence (Q14191 other isoform, or with tags, fused parts or gaps L1074F (already in the parent)): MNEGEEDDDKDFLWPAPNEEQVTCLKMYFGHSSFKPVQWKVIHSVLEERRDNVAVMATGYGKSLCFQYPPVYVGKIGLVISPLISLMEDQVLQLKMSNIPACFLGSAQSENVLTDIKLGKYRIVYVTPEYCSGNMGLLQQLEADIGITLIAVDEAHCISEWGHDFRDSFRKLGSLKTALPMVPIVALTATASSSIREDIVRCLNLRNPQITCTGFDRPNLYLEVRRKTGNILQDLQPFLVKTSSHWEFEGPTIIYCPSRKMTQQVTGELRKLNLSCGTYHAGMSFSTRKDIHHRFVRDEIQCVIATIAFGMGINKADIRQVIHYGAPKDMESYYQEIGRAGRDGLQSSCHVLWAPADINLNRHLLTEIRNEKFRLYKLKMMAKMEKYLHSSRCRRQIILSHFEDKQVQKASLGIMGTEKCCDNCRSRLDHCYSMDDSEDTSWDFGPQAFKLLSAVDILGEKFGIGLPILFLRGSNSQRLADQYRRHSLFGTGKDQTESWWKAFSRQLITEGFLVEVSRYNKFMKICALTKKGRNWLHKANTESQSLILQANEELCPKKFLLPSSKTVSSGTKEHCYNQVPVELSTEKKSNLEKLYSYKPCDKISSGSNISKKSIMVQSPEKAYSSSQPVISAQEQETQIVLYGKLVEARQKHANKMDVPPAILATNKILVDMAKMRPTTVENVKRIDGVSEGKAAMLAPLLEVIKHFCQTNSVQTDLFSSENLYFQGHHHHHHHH

| Compound | IC50 [1] [µM] | EC50 ([2]; Homo sapiens) [µM] | EC50 [2] [µM] |
| --- | --- | --- | --- |
| CCc1c(N2CCN(C(=O)c3cccnc3OC)[C@H]3CC[C@@H]32)c(=O)c2nn(C3=CCOCC3)nc2n1CC(=O)NC12CC(C(C)C)(C1)C2 [Compound I-198, 2-[2-(3,6-dihydro-2H-pyran-4-yl)-5-ethyl-6-[(1S,6S)-5-(2-methoxypyridine-3-carbonyl)-2,5-diazabicyclo[4.2.0]octan-2-yl]-7-oxo-2H,4H,7H-[1,2,3]triazolo[4,5-b]pyridin-4-yl]-N-[3-(propan-2-yl)bicyclo[1.1.1]pentan-1-yl]acetamide] | 0.005 to 0.05 | ≤ 0.5 |  |
| CCc1c(N2CCN(C(=O)c3ncnc(C)c3O)CC2)c(=O)c2nn(-c3ccnc(OC)c3)nc2n1CC(=O)Nc1ccc(C(F)(F)F)cc1Cl [Compound I-1, N-(2-chloro-4-(trifluoromethyl)phenyl)-2-(5-ethyl-6-(4-(5-hydroxy-6-methylpyrimidine-4-carbonyl)piperazin-1-yl)-2-(2-methoxypyridin-4-yl)-7-oxo-2,7-dihydro-4H-[1,2,3]triazolo[4,5-b]pyridin-4-yl)acetamide] | 0.005 to 0.05 |  | ≤ 0.5 |
| CCc1c(N2CCN(C(=O)c3ncnc(C)c3O)[C@H]3CC[C@@H]32)c(=O)c2nn(C3CC3)nc2n1CC(=O)Nc1ccc(C(F)(F)F)cc1Cl [Compound I-153, N-[2-chloro-4-(trifluoromethyl)phenyl]-2-{2-cyclopropyl-5-ethyl-6-[(1S,6S)-5-(5-hydroxy-6-methylpyrimidine-4-carbonyl)-2,5-diazabicyclo[4.2.0]octan-2-yl]-7-oxo-2H,4H,7H-[1,2,3]triazolo[4,5-b]pyridin-4-yl}acetamide] | ≤ 0.005 | ≤ 0.5 |  |
| CCc1c(N2CCN(C(=O)c3ncnc(C)c3O)[C@H]3CC[C@@H]32)c(=O)c2nn(-c3ccc(OC)cc3)nc2n1CC(=O)NC12CC(C(C)C)(C1)C2 [Compound I-155, 2-{5-ethyl-6-[(1S,6S)-5-(5-hydroxy-6-methylpyrimidine-4-carbonyl)-2,5-diazabicyclo[4.2.0]octan-2-yl]-2-(4-methoxyphenyl)-7-oxo-2H,4H,7H-[1,2,3]triazolo[4,5-b]pyridin-4-yl}-N-[3-(propan-2-yl)bicyclo[1.1.1]pentan-1-yl]acetamide] | ≤ 0.005 | ≤ 0.5 |  |
| CCc1c(N2CCN(C(=O)c3ncnc(C)c3O)[C@H]3CC[C@@H]32)c(=O)c2nn(C3CC3(F)F)nc2n1CC(=O)Nc1ccc(C(F)(F)F)cc1Cl (stereo partly drawn) [Compound I-189, N-[2-chloro-4-(trifluoromethyl)phenyl]-2-[2-(2,2-difluorocyclopropyl)-5-ethyl-6-[(1S,6S)-5-(5-hydroxy-6-methylpyrimidine-4-carbonyl)-2,5-diazabicyclo[4.2.0]octan-2-yl]-7-oxo-2H,4H,7H-[1,2,3]triazolo[4,5-b]pyridin-4-yl]acetamide] | ≤ 0.005 | ≤ 0.5 |  |
| CCc1c(N2CCN(C(=O)c3c(O)cccc3OC(F)(F)F)CC2)c(=O)c2nn(-c3ccnc(OC)c3)nc2n1CC(=O)NC12CC(C3CC3)(C1)C2 [Compound I-136, N-{3-cyclopropylbicyclo[1.1.1]pentan-1-yl}-2-(5-ethyl-6-{4-[2-hydroxy-6-(trifluoromethoxy)benzoyl]piperazin-1-yl}-2-(2-methoxypyridin-4-yl)-7-oxo-2H,4H,7H-[1,2,3]triazolo[4,5-b]pyridin-4-yl)acetamide] | 0.005 to 0.05 | 2 to 5 |  |
| CCc1c(N2CCN(C(=O)c3ccncc3OC)[C@H]3CC[C@@H]32)c(=O)c2nn(C3=CCOCC3)nc2n1CC(=O)NC12CC(C(C)C)(C1)C2 [Compound I-208, 2-[2-(3,6-dihydro-2H-pyran-4-yl)-5-ethyl-6-[(1S,6S)-5-(3-methoxypyridine-4-carbonyl)-2,5-diazabicyclo[4.2.0]octan-2-yl]-7-oxo-2H,4H,7H-[1,2,3]triazolo[4,5-b]pyridin-4-yl]-N-[3-(propan-2-yl)bicyclo[1.1.1]pentan-1-yl]acetamide] | 0.005 to 0.05 | 0.5 to 2 |  |
| CCc1c(N2CCN(C(=O)c3ncnc(C)c3O)[C@H]3CC[C@@H]32)c(=O)c2nn(-c3ncccc3F)nc2n1CC(=O)NC12CC(C(C)C)(C1)C2 [Compound I-163, 2-[5-ethyl-2-(3-fluoropyridin-2-yl)-6-[(1S,6S)-5-(5-hydroxy-6-methylpyrimidine-4-carbonyl)-2,5-diazabicyclo[4.2.0]octan-2-yl]-7-oxo-2H,4H,7H-[1,2,3]triazolo[4,5-b]pyridin-4-yl]-N-[3-(propan-2-yl)bicyclo[1.1.1]pentan-1-yl]acetamide] | 0.005 to 0.05 | > 5 |  |
| CCc1c(N2CCN(C(=O)c3c(OC)ncc([C@@H]4CCOC4)c3O)CC2)c(=O)c2nn(-c3ccnc(OC)c3)nc2n1CC(=O)NC12CC(C(C)C)(C1)C2 (single isomer, unassigned) [Compound I-44] | 0.005 to 0.05 | ≤ 0.5 |  |
| CCc1c(N2CCN(C(=O)c3ncnc(C)c3O)[C@H]3CC[C@@H]32)c(=O)c2nn(-c3ccnc(OC)c3)nc2n1CC(=O)Nc1ccc(C(F)F)cc1Cl [Compound I-82, N-[2-chloro-4-(difluoromethyl)phenyl]-2-{5-ethyl-6-[(1S,6S)-5-(5-hydroxy-6-methylpyrimidine-4-carbonyl)-2,5-diazabicyclo[4.2.0]octan-2-yl]-2-(2-methoxypyridin-4-yl)-7-oxo-2H,4H,7H-[1,2,3]triazolo[4,5-b]pyridin-4-yl}acetamide] | ≤ 0.005 | ≤ 0.5 |  |
| CCc1c(N2CCN(C(=O)c3c(OC)ncc(C)c3O)CC2)c(=O)c2nn(-c3ccnc(OC)c3)nc2n1CC(=O)NC1CC2(CC(C)C2)C1 (centres unmarked) [Compound I-103, 2-{5-ethyl-6-[4-(4-hydroxy-2-methoxy-5-methylpyridine-3-carbonyl)piperazin-1-yl]-2-(2-methoxypyridin-4-yl)-7-oxo-2H,4H,7H-[1,2,3]triazolo[4,5-b]pyridin-4-yl}-N-{6-methylspiro[3.3]heptan-2-yl}acetamide] | 0.005 to 0.05 | 2 to 5 |  |
| CCc1c(N2CCN(C(=O)c3ncnc(C)c3O)[C@H]3CC[C@@H]32)c(=O)c2nn(-c3cc(C)n(C)n3)nc2n1CC(=O)NC12CC(C3CC3)(C1)C2 [Compound I-34, N-{3-cyclopropylbicyclo[1.1.1]pentan-1-yl}-2-[2-(1,5-dimethyl-1H-pyrazol-3-yl)-5-ethyl-6-[(1S,6S)-5-(5-hydroxy-6-methylpyrimidine-4-carbonyl)-2,5-diazabicyclo[4.2.0]octan-2-yl]-7-oxo-2H,4H,7H-[1,2,3]triazolo[4,5-b]pyridin-4-yl]acetamide] | 0.005 to 0.05 | ≤ 0.5 |  |
| CCc1c(N2CCN(C(=O)c3ccccn3)[C@H]3CC[C@@H]32)c(=O)c2nn(C3=CCOCC3)nc2n1CC(=O)NC12CC(C(C)C)(C1)C2 [Compound I-184, 2-[2-(3,6-dihydro-2H-pyran-4-yl)-5-ethyl-7-oxo-6-[(1S,6S)-5-(pyridine-2-carbonyl)-2,5-diazabicyclo[4.2.0]octan-2-yl]-2H,4H,7H-[1,2,3]triazolo[4,5-b]pyridin-4-yl]-N-[3-(propan-2-yl)bicyclo[1.1.1]pentan-1-yl]acetamide] | 0.005 to 0.05 | 0.5 to 2 |  |
